Like-named read-outs stand apart in the source and are kept apart here.
Key:
[1] = Cytotoxicity by MTT assay against T47D cells; conditions: human
Excerpt: (§1) All experiments were independently performed at least three times.

HIF-1 [2] = biological target: T1, HIF-1 (Homo sapiens, UniProt Q16665); experiment: HIF-1-mediated reporter gene assay in T47D cells (HRE-luciferase, hypoxia-induced HIF-1 activation); format: cell-based; design: endogenous in cells; host or cells: T47D cells (American Type Culture Collection)
T1 sequence (Q16665 whole entry): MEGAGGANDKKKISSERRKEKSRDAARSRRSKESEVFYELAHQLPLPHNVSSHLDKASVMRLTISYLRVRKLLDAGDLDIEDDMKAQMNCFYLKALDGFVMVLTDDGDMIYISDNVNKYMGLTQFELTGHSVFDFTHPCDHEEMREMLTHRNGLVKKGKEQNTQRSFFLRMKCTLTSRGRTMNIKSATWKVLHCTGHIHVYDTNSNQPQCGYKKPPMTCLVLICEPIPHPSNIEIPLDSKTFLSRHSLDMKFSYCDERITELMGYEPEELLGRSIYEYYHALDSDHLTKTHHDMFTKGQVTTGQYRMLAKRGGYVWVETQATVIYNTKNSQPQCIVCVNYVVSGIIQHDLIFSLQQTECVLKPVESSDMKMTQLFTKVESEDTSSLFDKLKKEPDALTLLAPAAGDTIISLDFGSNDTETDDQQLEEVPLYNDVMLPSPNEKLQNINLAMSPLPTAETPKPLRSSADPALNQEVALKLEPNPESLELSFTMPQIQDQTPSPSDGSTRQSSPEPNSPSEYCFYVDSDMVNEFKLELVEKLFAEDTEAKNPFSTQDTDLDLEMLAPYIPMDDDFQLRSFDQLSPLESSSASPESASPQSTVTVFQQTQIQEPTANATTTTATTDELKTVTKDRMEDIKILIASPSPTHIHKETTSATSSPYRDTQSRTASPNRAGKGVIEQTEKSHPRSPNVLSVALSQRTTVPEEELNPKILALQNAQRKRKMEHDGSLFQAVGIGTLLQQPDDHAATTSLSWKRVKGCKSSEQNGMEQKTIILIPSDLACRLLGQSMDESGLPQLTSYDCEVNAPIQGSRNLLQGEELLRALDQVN
Experimental: The HIF-1-mediated reporter gene assay in T47D cells was performed according to a previous protocol with minor modification (Parhira, S. et al., Sci. Rep., 2014, 4, 4748). T47D cells (American Type Culture Collection) were cultured in DMEM medium (Invitrogen), supplemented with 10% (v/v) fetal serum (FBS) (Invitrogen), 100 U/mL penicillin, and 100 μg/mL streptomycin (Invitrogen) in a humidified atmosphere (5% CO2 and 95% air) at 37° C. Cells (5×10^6) were co-transfected with the HRE-luciferase (Addgene) and Renilla plasmids using Lipofectamine 2000 (Invitrogen) according to the manufacturer's protocol. The transfected cells were seeded in 96-well plates with a density of 5×10^4/well and cultured in DMEM with 10% FBS overnight. After addition of the test compounds with different concentrations, the cells were incubated for 1 h, and then exposed to hypoxic (2% O2/5% CO2/93% N2) or normoxic (5% CO2/95% air) conditions at 37° C. for 20 h. Then the cells were lysed, and luciferase assay was performed using a Dual-Luciferase® reporter assay (Promega) kit according to the instructions of the manufacturer. Luciferase activities of both HRE and Renilla were determined by a multimode reader (Infinite 200 PRO, Teacan). HIF-1 transcriptional activity was shown by the ratio of firefly/Renilla luciferase activity. IC50 values were determined from the dose-response curves using Prism software. The data were repeated by three independent experiments.

HIF-1 [3] = biological target: T1, HIF-1; conditions: literature value (Hodges et al. 2004; Cai et al. 2006); read-out: HIF-1 inhibition IC50 (literature); cited from earlier work
T47D cells = experiment: Cytotoxicity by MTT assay against T47D cells; conditions: read-out: Cytotoxicity against T47D cells IC50 (nM) Hypoxic; T47D cells, hypoxic conditions, MTT assay
Excerpt: as §1

[4] = T47D cells, Cytotoxicity against T47D cells IC50 (nM) Hypoxic, hypoxic conditions, MTT assay
[5] = T47D cells, Cytotoxicity against T47D cells IC50 (nM) Normoxic, normoxic conditions, MTT assay
[6] = T47D human breast tumor cells, HIF-1 activation induced by hypoxia (2% O2, 20 h), means±SD, read-out: HIF-1 activation inhibitory activity IC50 (nM) T47D
[7] = Cytotoxicity against T47D cells IC50 (nM) Hypoxic, T47D cells, hypoxic conditions, MTT assay
[8] = Cytotoxicity against T47D cells IC50 (nM) Normoxic, T47D cells, normoxic conditions, MTT assay

SMILES | IC50 [1, 4] [nM] | IC50 [1, 5] [nM] | IC50 (HIF-1 [2]) [nM] | IC50 [1, 7] [nM] | IC50 [1, 8] [nM] | further results
COc1ccc2c3c(c4cc(OC)c(OC)cc4c2c1)CN1O[C@@H](CC(C)=O)CC[C@H]1[C@H]3O (single isomer, unassigned) [compound 3, 12S, 14aS, 15S-11-oxa-12-(2-oxopropyl)-hydroxyboehmeriasin A] | > 20000 | > 10000 |  |  |  | IC50 (HIF-1 [2]; [6]): 2660 ± 1810 nM
COc1ccc([C@@H](O)[C@@H](C)Oc2ccc([C@H]3O[C@H](c4ccc(O[C@H](C)[C@H](O)c5ccc6c(c5)OCO6)c(OC)c4)[C@H](C)[C@H]3C)cc2OC)cc1OC [Manassantin B] |  |  |  |  |  | IC50 (HIF-1 [3]): 3 nM
COc1ccc2c3c(c4cc(OC)c(O)cc4c2c1)CN1C(=O)CC[C@H]1[C@H]3O [compound 1, 11-keto-tylophorinidine] |  |  | > 10000 |  |  | 
COc1cc2c3c(c4cc(O)c(OC)cc4c2cc1O)CC1CCCN1C3 (stereo not shown) [compound 4, 2-hydroxyl deoxytylophorinidine] |  |  | 19 ± 2 | > 500 | > 500 | 
COc1cc2c3c(c4cc(O)c(OC)cc4c2cc1O)C(O)C1CCCN1C3 (stereo not shown) [compound 5, 2-hydroxyl tylophorinidine] | > 250 | > 250 | 10 |  |  | 
COc1cc2c3c(c4ccc(O)cc4c2cc1O)[C@@H](O)[C@@H]1CCC[N@@+]1([O-])C3 [compound 6, 10R, 14R-3-O-demethyl tylophorinidine N-oxide] | > 200 | > 200 |  |  |  | IC50 (HIF-1 [2]; [6]): 50 ± 35 nM
COc1cc2c3c(c4cc(O)c(OC)cc4c2cc1O)[C@@H](O)[C@H]1CCC[N@+]1([O-])C3 [compound 7, 10S, 13aR, 14R-2-hydroxyl tylophorinidine N-oxide] | > 1000 | > 1000 |  |  |  | IC50 (HIF-1 [2]; [6]): 37 ± 8 nM
COc1cc2c(cc1O)c1c(c3cc(OC)c(OC)cc32)C[N@+]2([O-])CCC[C@H]2[C@@H]1O [compound 8, 10R-2-hydroxyl tylophorinine N-oxide] | > 1000 | > 1000 | 170 ± 106 |  |  | 
COc1cc2c(cc1O)c1c(c3cc(OC)c(OC)cc32)CN2CCC[C@@H]2[C@@H]1O [compound 9, 13aR-2-hydroxyl tylophorinine] |  |  | 489 ± 108 | > 2000 | > 2000 | 
COc1cc2c3c(c4cc(OC)c(OC)cc4c2cc1OC)[C@H](O)[C@@H]1CCC[N@@+]1([O-])C3 [compound 10, 10R, 13aS, 14S-14-hydroxytylophorine N-oxide] | > 2000 | > 2000 |  |  |  | IC50 (HIF-1 [2]; [6]): 441 nM
COc1cc2c3c(c4cc(OC)c(OC)cc4c2cc1OC)C[N@+]1([O-])CCC[C@H]1C3 [compound 11, 10R, 13aS-tylophorine N-oxide] | > 2000 | > 2000 |  |  |  | IC50 (HIF-1 [2]; [6]): 930 nM
COc1ccc2c3c(c4cc(OC)c(OC)cc4c2c1)C[N@+]1([O-])CCC[C@H]1C3 [compound 12, 10R-deoxytylophorinine N-oxide] |  |  | 254 | > 2000 | > 1000 | 
COc1cc2c3c(c4ccc(O)cc4c2cc1O)[C@H](O)[C@@H]1CCCN1C3 [compound 13, 3-O-demethyl tylophorinidine] | > 250 | > 250 | 10 |  |  | 
COc1ccc2c3c(c4cc(OC)c(O)cc4c2c1)CN1CCC[C@H]1[C@H]3O [compound 14, tylophorinidine] | > 100 | > 10 | 4 |  |  | 
COc1cc2c3c(c4ccc(O)cc4c2cc1OC)[C@H](O)[C@@H]1CCCN1C3 [compound 15, trans-(+)-3,14a-dihydroxy-6,7-dimethoxyphenanthroindolizidine] | > 250 | > 250 |  |  |  | IC50 (HIF-1 [2]; [6]): 6 ± 3 nM
COc1ccc2c3c(c4cc(OC)c(O)cc4c2c1)C[N+]1([O-])CCC[C@H]1[C@H]3O (stereo partly shown) [compound 16, tylophoridicine C] |  |  | 25 |  |  | IC50 [1]: > 100 nM; IC50 (T47D cells): > 100 nM
COc1ccc2c3c(c4cc(OC)c(OC)cc4c2c1)C[N+]1([O-])CCC[C@@H]1[C@@H]3O (stereo partly shown) [compound 17, tylophorinine N-oxide] |  |  | 3 |  |  | IC50 [1]: > 100 nM; IC50 (T47D cells): > 100 nM
COc1ccc2c3c(c4cc(OC)c(OC)cc4c2c1)CN1CCC[C@H]1[C@@H]3O [compound 18, tylophorinine] |  |  | 19 | > 500 | > 500 | 
COc1cc2c3c(c4cc(OC)c(OC)cc4c2cc1OC)CN1CCC[C@H]1C3 [compound 19, 13aS-tylophorine] |  |  | 438 | > 2000 | > 1000 | 
COc1ccc2c3c(c4cc(OC)c(OC)cc4c2c1)CN1CCC[C@H]1C3 [compound 20, deoxytylophorinine] |  |  | 115 | > 15000 | > 600 | times more potent than its dehydrogenated product (22) (HIF-1 [2]; compound (20) versus (22), HIF-1 IC50): at least 8 times
COc1ccc2c3c(c4cc(OC)c(OC)cc4c2c1)CN1CCC[C@H]1[C@H]3O [compound 21, O-methyl-tylophorindine] |  |  | 13 | > 12500 | > 500 | 
COc1ccc2c(c1)c1cc(OC)c(OC)cc1c1c[n+]3c(cc21)CCC3 [compound 22, tylophoridicine D] |  |  | > 10000 |  |  | 

Reference: US9782401B1, “Method of isolating phenanthroindolizidine alkaloids from Tylophora atrofolliculata with HIF-1 inhibitory activity, compositions comprising them and their use” (priority 2016, dated 2017)
